This is an account of results in patent US20230365590A1, “BIPHENYL COMPOUND AS IMMUNOMODULATOR, PREPARATION METHOD THEREFOR AND APPLICATION THEREOF” (SHENZHEN CHIPSCREEN BIOSCIENCES CO., LTD., priority 2020, published 2023).

For test [1], the target named is PD-1/PD-L1 binding (recombinant human PD-L1-Fc fusion protein and His-PD-1 protein) (Homo sapiens (Human), UniProt Q9NZQ7). Put plainly: In vitro inhibitory activity against PD-1/PD-L1 binding (HTRF). The following applies: read-out: IC50 for inhibiting PD-1/PD-L1 binding in vitro. The source says: Homogeneous time resolved fluorescence method (HTRF): This method uses the recombinant human PD-L1 protein fused with hFc tag and the recombinant human PD-1 protein fused with His tag, which are interacting ligands and receptors. When the anti-hFc antibody containing chelated Eu tag and the anti-His antibody containing XL665 fluorescein tag are used to bind with the above two corresponding tags respectively and are excited by 320 nm laser, energy can be transferred from Eu element to XL665 fluorescein due to ligand receptor binding, and the XL665 fluorescein is excited to emit light with a wavelength of 665 nm. When an inhibitor for inhibiting interaction of PD-L1 and PD-1 is added, the binding of the ligand and the receptor is destroyed, causing a long distance between Eu and XL665. As a result, the energy cannot be transferred, and the XL665 fluorescein will not be excited.
Experimental Materials and Devices The recombinant human PD-1 protein with His tag (His-PD-1 protein, Cat #: 10377-H08H-50) and the recombinant human PD-L1-Fc fusion protein (PD-L1-Fc fusion protein, Cat #: 10084-H02H-100) were purchased from Sino Biological Inc., anti-hFc-Eu^3+ antibody and anti-His-XL665 antibody were purchased from Cisbio, and other related reagents such as a diluent buffer (diluent buffer 5 (Cat #: 62DL5DDC) and a detection buffer (PPI-European detection buffer, Cat #: 61DB9RDF) were purchased from Cisbio. Fluorescence detector Tecan (Spark 10M) was purchased from Tecan Company in Switzerland.
The experiment process was carried out according to the flow required in the operating manual of the test reagent. The process was as follows: • (1) Experiment preparation: A test compound was diluted to different concentration gradients with the dilution buffer (the highest final concentration in a 20 μL final reaction system was 10 μM). The His-PD-1 protein was diluted to 800 nM (the final concentration in the 20 final reaction system was 100 nM). The PD-L1-Fc fusion protein was diluted to 16 nM (the final concentration was 2 nM). […] All tests were conducted by use of multiple holes. • (4) The fluorescence detector Tecan (Spark 10M) was used to detect the fluorescence signal of each hole. The excitation wavelength was 320 nm, and the emission wavelengths for detection were 620 nm and 665 nm, respectively. The strength of PD-1/PD-L1 binding refers to a fluorescence signal ratio Em665/Em620. • (5) Calculation formula of binding inhibition rate of test compound: Inhibition rate (%)=[1−(fluorescence signal ratio of detected hole−fluorescence signal ratio of 100% inhibition negative control)]/(fluorescence signal ratio of 0% inhibition positive control−fluorescence signal ratio of 100% inhibition negative control)×100%. The 50% inhibition concentration (IC50) was calculated after the PD-1/PD-L1 binding inhibition rates of the test compound with different concentration gradients were calculated respectively.

The target in test [2] is CD80/PD-L1 binding (recombinant human His-CD80 protein and PD-L1-Fc fusion protein) (Homo sapiens (Human), UniProt Q9NZQ7). Put plainly: In vitro inhibitory activity against CD80/PD-L1 binding (HTRF). Particulars: read-out: IC50 for inhibiting CD80/PD-L1 binding in vitro. The source says:
In addition to PD-1, PD-L1 can also play an immune inhibition role by binding to CD80. Similarly, in vitro CD80/PD-L1 binding or binding inhibition test can also be conducted by homogeneous time-resolved fluorescence (HTRF). When the anti-hFc-Eu^3+ antibody and the anti-His-XL665 antibody are used to bind to the hFC tag fused to PD-L1 and the His tag fused to CD80 respectively, and after excitation with 320 nm laser, energy can be transferred from Eu element to XL665 fluorescein due to the binding of PD-L1 and CD80 to excite the XL665 fluorescein to emit light. When an inhibitor for inhibiting interaction of PD-L1 and CD80 is added, the binding of PD-L1 and CD80 is destroyed, causing a long distance between Eu and XL665. As a result, the energy cannot be transferred, and the XL665 fluorescein will not be excited.
The recombinant human CD80 protein with His tag (His-CD80 protein, Cat #: 10698-H08H-100) and the recombinant human PD-L1-Fc fusion protein (PD-L1-Fc fusion protein, Cat #: 10084-H02H-100) were purchased from Sino Biological Inc., anti-hFc-Eu^3+ antibody and anti-His-XL665 antibody were purchased from Cisbio, and other related reagents such as a diluent buffer (Diluent buffer 5 (Cat #: 62DL5DDC) and a detection buffer (PPI-European detection buffer, Cat #: 61DB9RDF) were purchased from Cisbio. Fluorescence detector Tecan (Spark 10M) was purchased from Tecan Company in Switzerland.
The experiment process was carried out according to the flow required in the operating manual of the test reagent (Invitrogen). The process was as follows: • (1) Experiment preparation: A test compound was diluted to different concentration gradients with the dilution buffer (the highest final concentration in a 20 μL final reaction system was 10 μM). The His-CD80 protein was diluted to 800 nM (the final concentration in the 20 final reaction system was 100 nM). The PD-L1-Fc fusion protein was diluted to 16 nM (the final concentration was 2 nM). The anti-His-XL665 antibody and the anti-hFc-Eu^3+antibody were diluted 20 times and 100 times respectively with the detection buffer according to reagent requirements. • (2) First, 5 μL of the test compound, 2.5 μL of the His-CD80 fusion protein and 2.5 μL of the […] fusion protein solution were well mixed and incubated at room temperature for 15 min; then, 5 μL of the anti-His-XL665 antibody and 5 μL of the anti-hFc-Eu^3+antibody were added to the system and further incubated for 3 h before test. • (3) During the test reaction, control groups were set, including a 0% inhibitory positive control without adding the test compound and a 100% inhibitory negative control without adding the CD80 protein. All tests were conducted by use of multiple holes. • (4) The fluorescence detector Tecan (Spark 10M) was used to detect the fluorescence signal of each hole. The excitation wavelength was 320 nm, and the emission wavelengths for detection were 620 nm and 665 nm, respectively. The strength of CD80/PD-L1 binding refers to a fluorescence signal ratio Em665/Em620. • (5) Calculation formula of binding inhibition rate of test compound: Inhibition rate (%)=[1−(fluorescence signal ratio of detected hole−fluorescence signal ratio of 100% inhibition negative control)]/(fluorescence signal ratio of 0% inhibition positive control — fluorescence signal ratio of 100% inhibition negative control)×100%. The 50% inhibition concentration (IC50) was calculated after the CD80/PD-L1 binding inhibition rates of the test compound with different concentration gradients were calculated respectively.

Sequence of PD-1/PD-L1 binding (recombinant human PD-L1-Fc fusion protein and His-PD-1 protein) (Q9NZQ7 19-239): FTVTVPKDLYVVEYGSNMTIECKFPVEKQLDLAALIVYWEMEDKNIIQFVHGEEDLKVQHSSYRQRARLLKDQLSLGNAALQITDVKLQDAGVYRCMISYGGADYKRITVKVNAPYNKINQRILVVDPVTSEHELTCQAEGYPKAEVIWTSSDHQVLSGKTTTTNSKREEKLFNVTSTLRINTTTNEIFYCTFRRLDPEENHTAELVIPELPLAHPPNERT
Sequence of CD80/PD-L1 binding (recombinant human His-CD80 protein and PD-L1-Fc fusion protein) (Q9NZQ7 19-239): as above

Take `COCC12CCC(CCN3CCc4c(nc(C(=O)Nc5cccc(-c6cccc(NC(=O)c7nc8c(n7C)CCN(CCC79CCC(C(=O)O)(CC7)C9)C8)c6Cl)c5C)n4C)C3)(CC1)C2` [Compound I-5, 4-(2-(2-((2-chloro-3′-(5-(2-(4-(methoxymethyl)bicyclo[2.2.1]heptan-1-yl)ethyl)-1-methyl-4,5,6,7-tetrahydro-1H-imidazo[4,5-c]pyridine-2-carboxamido)-2′-methyl-[1,1′-biphenyl]-3-yl)carbamoyl)-1-methyl-1,4,6,7-tetrahydro-5H-imidazo [4,5-c]pyridin-5-yl)ethyl)bicyclo[2.2.1]heptane-1-carboxylic acid]: the IC50 in test [1] amounted to 2.35 nM; in test [2] it was 2.16 nM.

On to `Cn1c(C(=O)Nc2cccc(-c3cccc(NC(=O)c4nc5c(n4C)CCN(CCC46CCC(C(=O)O)(CC4)C6)C5)c3Cl)c2Cl)nc2c1CCN(CCC13CCC(COC(F)F)(CC1)C3)C2` [Compound I-7, 4-(2-(2-((2,2′-dichloro-3′-(5-(2-(4-((difluoromethoxy)methyl)bicyclo[2.2.1]heptan-1-yl)ethyl)-1-methyl-4,5,6,7-tetrahydro-1H-imidazo[4,5-c]pyridine-2-carboxamido)-[1,1′-biphenyl]-3-yl)carbamoyl)-1-methyl-1,4,6,7-tetrahydro-5H-imidazo[4,5-c]pyridin-5-yl)ethyl)bicyclo[2.2.1]heptane-1-carboxylic acid], for which the IC50 in test [1] was determined as 0.29 nM; in test [2], 0.33 nM.

For `COCC12CCC(CN3CCc4c(nc(C(=O)Nc5cccc(-c6cccc(NC(=O)c7nc8c(n7C)CCN(CCC79CCC(C(=O)O)(CC7)C9)C8)c6Cl)c5Cl)n4C)C3)(CC1)C2` [Compound I-8, 4-(2-(2-((2,2′-dichloro-3′-(5-((4-(methoxymethyl)bicyclo[2.2.1]heptan-1-yl)methyl)-1-methyl-4,5,6,7-tetrahydro-1H-imidazo[4,5-c]pyridine-2-carboxamido)-[1, 1′-biphenyl]-3-yl)carbamoyl)-1-methyl-1,4,6,7-tetrahydro-5H-imidazo[4,5-c]pyridin-5-yl)ethyl)bicyclo[2.2.1]heptane-1-carboxylic acid], the figures for the IC50 in test [1] and in test [2] were 3.7 nM and 3.4 nM, respectively.

Regarding `COCC12CCC(CCN3CCc4c(nc(C(=O)Nc5cccc(-c6cccc(NC(=O)c7nc8c(n7C)CCN(CCC79CCC(C(=O)O)(CC7)C9)C8)c6Cl)c5F)n4C)C3)(CC1)C2` [Compound I-9, 4-(2-(2-((2-chloro-2′-fluoro-3′-(5-(2-(4-(methoxymethyl)bicyclo[2.2.1]heptan-1-yl)ethyl)-1-methyl-4,5,6,7-tetrahydro-1H-imidazo [4,5-c]pyridine-2-carboxamido)-[1,1′-biphenyl]-3-yl)carbamoyl)-1-methyl-1,4,6,7-tetrahydro-5H-imidazo[4,5-c]pyridin-5-yl)ethyl)bicyclo[2.2.1]heptane-1-carboxylic acid], the results for the IC50 in test [1] and in test [2] were 0.88 nM and 0.41 nM, respectively.

On to `Cn1c(C(=O)Nc2cccc(-c3cccc(NC(=O)c4nc5c(n4C)CCN(CCC46CCC(C(=O)O)(CC4)C6)C5)c3Cl)c2F)nc2c1CCN(CCC13CCC(COC(F)F)(CC1)C3)C2` [Compound I-10, 4-(2-(2-((2-chloro-3′-(5-(2-(4-((difluoromethoxy)methyl)bicyclo[2.2.1]heptan-1-yl)ethyl)-1-methyl-4,5,6,7-tetrahydro-1H-imidazo[4,5-c]pyridine-2-carboxamido)-2′-fluoro-[1,1′-biphenyl]-3-yl)carbamoyl)-1-methyl-1,4,6,7-tetrahydro-5H-imidazo[4,5-c]pyridin-5-yl)ethyl)bicyclo[2.2.1]heptane-1-carboxylic acid], for which the IC50 in test [1] was determined as 1.13 nM; in test [2], 0.62 nM.

With `COCC12CCC(CCN3CCc4c(nc(C(=O)Nc5cccc(-c6cccc(NC(=O)c7nc8c(n7C)CCN(CCC79CCC(C(=O)O)(CC7)C9)C8)c6Cl)c5C#N)n4C)C3)(CC1)C2` [Compound I-11, 4-(2-(2-((2-chloro-2′-cyano-3′-(5-(2-(4-(methoxymethyl)bicyclo[2.2.1]heptan-1-yl)ethyl)-1-methyl-4,5,6,7-tetrahydro-1H-imidazo[4,5-c]pyridine-2-carboxamido)-[1,1′-biphenyl]-3-yl)carbamoyl)-1-methyl-1,4,6,7-tetrahydro-5H-imidazo[4,5-c]pyridin-5-yl)ethyl)bicyclo[2.2.1]heptane-1-carboxylic acid], the IC50 was 1.94 nM in test [1] and 1.43 nM in test [2].

With `COCC12CCC(CCN3CCc4c(nc(C(=O)Nc5cccc(-c6cccc(NC(=O)c7nc8c(n7C)CCN(CC79CCC(C(=O)O)(CC7)C9)C8)c6Cl)c5C)n4C)C3)(CC1)C2` [Compound I-12, 4-((2-((2-chloro-3′-(5-(2-(4-(methoxymethyl)bicyclo[2.2.1]heptan-1-yl)ethyl)-1-methyl-4,5,6,7-tetrahydro-1H-imidazo[4,5-c]pyridine-2-carboxamido)-2′-methyl-[1,1′-biphenyl]-3-yl)carbamoyl)-1-methyl-1,4,6,7-tetrahydro-5H-imidazo[4,5-c]pyridin-5-yl)methyl)bicyclo[2.2.1]heptane-1-carboxylic acid], the results for the IC50 in test [1] and in test [2] were 2.46 nM and 1.64 nM, respectively.

`Cn1c(C(=O)Nc2cccc(-c3cccc(NC(=O)c4nc5c(n4C)CCN(CC46CCC(C(=O)O)(CC4)C6)C5)c3Cl)c2Cl)nc2c1CCN(CCO)C2` [Example 180]: the figures for the IC50 in test [1] and in test [2] were 4.62 nM and 5.53 nM, respectively.
